The source of these data is patent publication US5605895A, “Cephalosporin antibiotics and processes for preparation thereof” (Lucky, Ltd., priority 1993, dated 1997).

For orientation: AUC means concentration integrated over time. Higher therefore signals more exposure. In general, half-life refers to the time in which the quantity being followed falls by half. High values mean slow loss, low ones fast loss.

One data set relates to S. typhimurium 14028A. The experiment in a line: Minimum inhibitory concentration, agar dilution. The class given is cell-based. The note with it: Salmonella enterica, TYPHIMURIUM, 20 h, read-out: Minimum Inhibitory Concentration. As to the method:
(§1) The minimum inhibitory concentration was determined by diluting the test compounds according to 2-fold dilution, suspending them in M uller-Hinton agar medium, inoculating the test strains having 10^7 CFU per 1 ml into the medium and then culturing the medium at 37° C. for 20 hours.
(In general: In agar dilution the substance is mixed into plates at graded concentrations.)

In the next data set the test system is S. aureus giorigio. The experiment in a line: Minimum inhibitory concentration, agar dilution. Format: cell-based. The note with it: Staphylococcus aureus, Muller-Hinton agar, 10^7 CFU per ml, 37° C., 20 hours. As to the method: as §1
A further data set concerns K. aerogenes 1976E. Briefly: Minimum inhibitory concentration, agar dilution. Format: cell-based. The note with it: Klebsiella aerogenes, Muller-Hinton agar, 10^7 CFU per ml, 37° C., 20 hours. As to the method: as §1
The next data set deals with E. coli TEM5 3739E. Briefly: Minimum inhibitory concentration, agar dilution. The class given is cell-based. The note with it: Escherichia coli, TEM53739E, 20 h, read-out: Minimum Inhibitory Concentration. As to the method: as §1
In a further data set the test system is P. aeruginosa 1912E. The experiment in a line: Minimum inhibitory concentration, agar dilution. Format: cell-based. Particulars: Pseudomonas aeruginosa, 20 h, read-out: Minimum Inhibitory Concentration. As to the method:
as §1

In the next data set the test system is E. coli 3190Y. Briefly: Minimum inhibitory concentration, agar dilution. Particulars: Escherichia coli, read-out: Minimum Inhibitory Concentration. The class given is cell-based. As to the method:
as §1

The next data set concerns E. coli TEM1 1193E. The experiment in a line: Minimum inhibitory concentration, agar dilution. The class given is cell-based. The note with it: Escherichia coli, TEM11193E, 20 h, read-out: Minimum Inhibitory Concentration. The protocol:
as §1

The next data set concerns E. coli 10536. The experiment in a line: Minimum inhibitory concentration, agar dilution. Format: cell-based. Particulars: read-out: Minimum Inhibitory Concentration. The protocol: as §1
The next data set has as its system S. faecalis 29212A. The experiment in a line: Minimum inhibitory concentration, agar dilution. The note with it: Enterococcus faecalis, 29212A, 20 h, read-out: Minimum Inhibitory Concentration. The class given is cell-based. As to the method:
as §1

A further data set relates to P. aeruginosa 6065Y. The experiment in a line: Minimum inhibitory concentration, agar dilution. The class given is cell-based. Particulars: Pseudomonas aeruginosa, 20 h, read-out: Minimum Inhibitory Concentration. The protocol:
as §1

The test system of another data set is P. aeruginosa 10145. Briefly: Minimum inhibitory concentration, agar dilution. The note with it: Pseudomonas aeruginosa, Muller-Hinton agar, 10^7 CFU per ml, 37° C., 20 hours. Format: cell-based. The protocol: as §1
The test system of another data set is S. marcescens 1826E. The experiment in a line: Minimum inhibitory concentration, agar dilution. Format: cell-based. Particulars: Serratia marcescens, Muller-Hinton agar, 10^7 CFU per ml, 37° C., 20 hours. As to the method: as §1
A further data set relates to E. cloacae 1194E. Briefly: Minimum inhibitory concentration, agar dilution. The class given is cell-based. Particulars: Enterobacter cloacae, read-out: Minimum Inhibitory Concentration. The protocol:
as §1

The next data set deals with S. aureus 6538pA. The experiment in a line: Minimum inhibitory concentration, agar dilution. The class given is cell-based. Particulars: Staphylococcus aureus, Muller-Hinton agar, 10^7 CFU per ml, 37° C., 20 hours. As to the method:
as §1

The subject of another data set is A. calcoaceticus 15473A. Briefly: Minimum inhibitory concentration, agar dilution. Format: cell-based. The note with it: Acinetobacter calcoaceticus, Muller-Hinton agar, 10^7 CFU per ml, 37° C., 20 hours. The protocol:
as §1

The test system of another data set is E. coli TEM9 2639E. Briefly: Minimum inhibitory concentration, agar dilution. The class given is cell-based. The note with it: Escherichia coli, TEM92639E, 20 h, read-out: Minimum Inhibitory Concentration. The protocol:
as §1

Data set [1] can be described thus: Pharmacokinetic properties in SD rats. Format: in vivo. The note with it: rat; SD rats (male), intravenous, 20 mg/kg; blood, biological assay (agar well method). As to the method: The pharmacokinetic properties of the compound of the present invention were determined using SD rats (.male.) weighing 220 to 340 g. Specifically, the test samples were administered in intravenous route in an amount of 20 mg/kg to 2 to 5 test animals. Blood was taken from femoral vein every hours after the administration and then subjected to a biological assay using agar well method to measure the blood concentration. The results of pharmacokinetic properties calculated from the above blood concentration are described in the following Table 3.

Each structure is given as a SMILES string. Converted amounts (≈) assume the structure as drawn. Read-outs that look alike come from different tables or passages of the source.

With `CC(C)(O/N=C(\C(=O)N[C@@H]1C(=O)N2C(C(=O)[O-])=C(C[n+]3ccccc3)CS[C@H]12)c1csc(N)n1)C(=O)O` [CAZ, Ceftazidime, reference compound], the MIC in the data set with S. typhimurium 14028A stood at 0.25 µg/mL (≈ 0.457 µM); in the data set with S. aureus giorigio it was 4 µg/mL (≈ 7.32 µM); against K. aerogenes 1976E, 0.25 µg/mL (≈ 0.457 µM); in the data set on E. coli TEM5 3739E, 8 µg/mL (≈ 14.6 µM); in the data set on P. aeruginosa 1912E it was 1 µg/mL (≈ 1.83 µM); in the data set with E. coli 3190Y (3190Y, 20 h) it was 0.063 µg/mL (≈ 0.115 µM). Also, the MIC was 0.25 µg/mL (≈ 0.457 µM) with E. coli TEM1 1193E; 0.13 µg/mL (≈ 0.238 µM) with E. coli 10536 (Escherichia coli, 10536, 20 h); above 128 µg/mL in the data set with S. faecalis 29212A; 32 µg/mL (≈ 58.5 µM) with P. aeruginosa 6065Y; 2 µg/mL (≈ 3.66 µM) with P. aeruginosa 10145; 0.25 µg/mL (≈ 0.457 µM) with S. marcescens 1826E. Besides, the MIC was 128 µg/mL (≈ 234 µM) with E. cloacae 1194E (1194E, 20 h); 16 µg/mL (≈ 29.3 µM) in the data set on S. aureus 6538pA; 2 µg/mL (≈ 3.66 µM) with A. calcoaceticus 15473A; above 128 µg/mL with E. coli TEM9 2639E.

`Cc1c(N)nc(SCC2=C(C(=O)[O-])N3C(=O)C(NC(=O)/C(=N\OC(C(=O)O)c4ccc(O)c(O)c4)c4csc(N)n4)[C@H]3SC2)[n+](N)c1N` (stereo partly drawn) [I-1(a), 7-[(Z)-2-(2-aminothiazol-4-yl)-2-(α-carboxy-3,4-dihydroxybenzyloxyimino)acetamido]-3-(5-methyl-1,4,6-triaminopyrimidinium-2-yl)thiomethyl-3-cephem-4-carboxylate] had an AUC in [1] of 52500 ng·h/mL. This compound had a half-life in data set [1] of 40 min. Moreover, the MIC came out at 0.063 µg/mL (≈ 0.0877 µM) with S. typhimurium 14028A; 0.13 µg/mL (≈ 0.181 µM) against S. aureus giorigio; 0.13 µg/mL (≈ 0.181 µM) with K. aerogenes 1976E; 0.25 µg/mL (≈ 0.348 µM) in the data set on E. coli TEM5 3739E; 0.5 µg/mL (≈ 0.696 µM) with P. aeruginosa 1912E; 0.063 µg/mL (≈ 0.0877 µM) in the data set with E. coli 3190Y (3190Y, 20 h). The MIC is 0.063 µg/mL (≈ 0.0877 µM) in the data set with E. coli TEM1 1193E; 0.013 µg/mL (≈ 0.0181 µM) with E. coli 10536 (Escherichia coli, E. coli 10536, Muller-Hinton agar, 10^7 CFU per ml, 37° C., 20 hours); 16 µg/mL (≈ 22.3 µM) with S. faecalis 29212A; 0.5 µg/mL (≈ 0.696 µM) in the data set with P. aeruginosa 6065Y; 0.25 µg/mL (≈ 0.348 µM) against P. aeruginosa 10145; 0.25 µg/mL (≈ 0.348 µM) against S. marcescens 1826E. The MIC in the data set with E. cloacae 1194E (1194E, 20 h) was 1 µg/mL (≈ 1.39 µM); in the data set on S. aureus 6538pA it was 0.25 µg/mL (≈ 0.348 µM); in the data set on A. calcoaceticus 15473A, 0.5 µg/mL (≈ 0.696 µM); in the data set with E. coli TEM9 2639E, 1 µg/mL (≈ 1.39 µM).

With `C[n+]1c(N)cc(N)nc1SCC1=C(C(=O)[O-])N2C(=O)C(NC(=O)C(=NOC(C(=O)O)c3ccc(O)c(O)c3)c3csc(N)n3)C2SC1` (stereo not drawn) [I-3(a), 7-[(Z)-2-(2-aminothiazol-4-yl)-2-(α-carboxy-3,4-dihydroxybenzyloximio)acetamido]-3-(4,6-diamino-1-methylpyrimidinium-2-yl)thiomethyl-3-cephem-4-carboxylate], in data set [1], the AUC was 55400 ng·h/mL. This compound showed a half-life in [1] of 53 min. Also, the MIC turned out to be 0.063 µg/mL (≈ 0.0895 µM) in the data set on S. typhimurium 14028A; 0.5 µg/mL (≈ 0.71 µM) with S. aureus giorigio; 0.25 µg/mL (≈ 0.355 µM) against K. aerogenes 1976E; 0.5 µg/mL (≈ 0.71 µM) with E. coli TEM5 3739E; 0.5 µg/mL (≈ 0.71 µM) with P. aeruginosa 1912E; 0.031 µg/mL (≈ 0.0441 µM) in the data set with E. coli 3190Y (E. coli 3190Y, Muller-Hinton agar, 10^7 CFU per ml, 37° C., 20 hours). Moreover, the MIC in the data set with E. coli TEM1 1193E came to 0.063 µg/mL (≈ 0.0895 µM); with E. coli 10536 (Escherichia coli, 10536, 20 h), 0.063 µg/mL (≈ 0.0895 µM); in the data set on S. faecalis 29212A, 32 µg/mL (≈ 45.5 µM); in the data set on P. aeruginosa 6065Y, 1 µg/mL (≈ 1.42 µM); against P. aeruginosa 10145, 0.5 µg/mL (≈ 0.71 µM); in the data set with S. marcescens 1826E it was 0.5 µg/mL (≈ 0.71 µM). Besides, the MIC with E. cloacae 1194E (E. cloacae 1194E, Muller-Hinton agar, 10^7 CFU per ml, 37° C., 20 hours) is 8 µg/mL (≈ 11.4 µM); with S. aureus 6538pA, 0.5 µg/mL (≈ 0.71 µM); in the data set on A. calcoaceticus 15473A, 0.5 µg/mL (≈ 0.71 µM); in the data set on E. coli TEM9 2639E, 4 µg/mL (≈ 5.68 µM).
